Measurements from the supplement of paper PMC4862054.

These compounds were tested on MDA-MB-436 (assay: drug sensitivity score (DSS), CellTox Green (DSS (AUC-based score)); higher = stronger drug effect (viability inhibition or cytotoxicity); extreme values may be limits of the assay). Details: incubation time: 72 h.
How it was run: (§1)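 Breast cancer cells were seeded into 384-well plates containing compound at 5 concentrations in 10-fold steps over a compound-specific 10,000-fold range and incubated 72 h. After CellTox Green and CellTiter-Glo readings, each plate was normalised to 0.1 % DMSO and a positive kill control. The drug sensitivity score rests on the area under the fitted dose-response curve.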

Point of comparison: `C=CC(=O)Nc1cc2c(Nc3ccc(F)c(Cl)c3)ncnc2cc1OCCCN1CCOCC1` [Canertinib], drug sensitivity score 0. Against it:
- Nc1ccccc1NC(=O)c1ccc(CNC(=O)OCc2cccnc2)cc1 [Entinostat] — higher, 4.39
- CCCCC(=O)OCC(=O)[C@]1(O)Cc2c(O)c3c(c(O)c2[C@@H](O[C@H]2C[C@H](NC(=O)C(F)(F)F)[C@H](O)[C@H](C)O2)C1)C(=O)c1c(OC)cccc1C3=O [Valrubicin] — higher, 3.14

Each compound was assayed on CAL-51 in the same assay as above. Details: incubation time: 72 h.
How it was run: as §1

Point of comparison: `Nc1ccccc1NC(=O)c1ccc(CNC(=O)OCc2cccnc2)cc1` [Entinostat], drug sensitivity score 7.91. Against it:
- CC[C@H](Nc1ncnc2[nH]cnc12)c1nc2cccc(F)c2c(=O)n1-c1ccccc1 [GS-1101] — lower, 0
- CC1=C(/C=C/C(C)=C/C=C/C(C)=C/C(=O)O)C(C)(C)CCC1 [Tretinoin] — lower, 0
- C=CC(=O)Nc1cc2c(Nc3ccc(F)c(Cl)c3)ncnc2cc1OCCCN1CCOCC1 [Canertinib] — lower, 5.83
- CCCCC(=O)OCC(=O)[C@]1(O)Cc2c(O)c3c(c(O)c2[C@@H](O[C@H]2C[C@H](NC(=O)C(F)(F)F)[C@H](O)[C@H](C)O2)C1)C(=O)c1c(OC)cccc1C3=O [Valrubicin] — higher, 8.29

What follows are compounds tested on CAL-85-1 in the same assay as above. Details: incubation time: 72 h.
How it was run: as §1

Point of comparison: `C=CC(=O)Nc1cc2c(Nc3ccc(F)c(Cl)c3)ncnc2cc1OCCCN1CCOCC1` [Canertinib], drug sensitivity score 8.99. Against it:
- CC[C@H](Nc1ncnc2[nH]cnc12)c1nc2cccc(F)c2c(=O)n1-c1ccccc1 [GS-1101] — lower, 0
- CC1=C(/C=C/C(C)=C/C=C/C(C)=C/C(=O)O)C(C)(C)CCC1 [Tretinoin] — lower, 1.14
- Nc1ccccc1NC(=O)c1ccc(CNC(=O)OCc2cccnc2)cc1 [Entinostat] — lower, 4.07
- CCCCC(=O)OCC(=O)[C@]1(O)Cc2c(O)c3c(c(O)c2[C@@H](O[C@H]2C[C@H](NC(=O)C(F)(F)F)[C@H](O)[C@H](C)O2)C1)C(=O)c1c(OC)cccc1C3=O [Valrubicin] — lower, 0

What follows are compounds tested on MCF-10A in the same assay as above. Details: incubation time: 72 h.
How it was run: as §1

Point of comparison: `Nc1ccccc1NC(=O)c1ccc(CNC(=O)OCc2cccnc2)cc1` [Entinostat], drug sensitivity score 0. Against it:
- CC[C@H](Nc1ncnc2[nH]cnc12)c1nc2cccc(F)c2c(=O)n1-c1ccccc1 [GS-1101] — the same, 0
- CC1=C(/C=C/C(C)=C/C=C/C(C)=C/C(=O)O)C(C)(C)CCC1 [Tretinoin] — higher, 1.81
- C=CC(=O)Nc1cc2c(Nc3ccc(F)c(Cl)c3)ncnc2cc1OCCCN1CCOCC1 [Canertinib] — higher, 8.86
- CCCCC(=O)OCC(=O)[C@]1(O)Cc2c(O)c3c(c(O)c2[C@@H](O[C@H]2C[C@H](NC(=O)C(F)(F)F)[C@H](O)[C@H](C)O2)C1)C(=O)c1c(OC)cccc1C3=O [Valrubicin] — the same, 0

These compounds were tested on CAL-120 in the same assay as above. Details: incubation time: 72 h.
How it was run: as §1

Point of comparison: `Nc1ccccc1NC(=O)c1ccc(CNC(=O)OCc2cccnc2)cc1` [Entinostat], drug sensitivity score 0. Against it:
- CC[C@H](Nc1ncnc2[nH]cnc12)c1nc2cccc(F)c2c(=O)n1-c1ccccc1 [GS-1101] — the same, 0
- CC1=C(/C=C/C(C)=C/C=C/C(C)=C/C(=O)O)C(C)(C)CCC1 [Tretinoin] — the same, 0
- C=CC(=O)Nc1cc2c(Nc3ccc(F)c(Cl)c3)ncnc2cc1OCCCN1CCOCC1 [Canertinib] — higher, 2.34
- CCCCC(=O)OCC(=O)[C@]1(O)Cc2c(O)c3c(c(O)c2[C@@H](O[C@H]2C[C@H](NC(=O)C(F)(F)F)[C@H](O)[C@H](C)O2)C1)C(=O)c1c(OC)cccc1C3=O [Valrubicin] — higher, 0.113

These compounds were tested on HCC1143 (assay: drug sensitivity score (DSS), CellTiter-Glo (DSS (AUC-based score)); higher = stronger drug effect (viability inhibition or cytotoxicity); extreme values may be limits of the assay). Details: incubation time: 72 h.
How it was run: as §1

Point of comparison: `Nc1ccccc1NC(=O)c1ccc(CNC(=O)OCc2cccnc2)cc1` [Entinostat], drug sensitivity score 3.36. Against it:
- CC[C@H](Nc1ncnc2[nH]cnc12)c1nc2cccc(F)c2c(=O)n1-c1ccccc1 [GS-1101] — lower, 0
- CC1=C(/C=C/C(C)=C/C=C/C(C)=C/C(=O)O)C(C)(C)CCC1 [Tretinoin] — lower, 0
- C=CC(=O)Nc1cc2c(Nc3ccc(F)c(Cl)c3)ncnc2cc1OCCCN1CCOCC1 [Canertinib] — higher, 3.9
- CCCCC(=O)OCC(=O)[C@]1(O)Cc2c(O)c3c(c(O)c2[C@@H](O[C@H]2C[C@H](NC(=O)C(F)(F)F)[C@H](O)[C@H](C)O2)C1)C(=O)c1c(OC)cccc1C3=O [Valrubicin] — higher, 8.06

What follows are compounds tested on HCC1599 in the same assay as above. Details: incubation time: 72 h.
How it was run: as §1

Point of comparison: `CCCCC(=O)OCC(=O)[C@]1(O)Cc2c(O)c3c(c(O)c2[C@@H](O[C@H]2C[C@H](NC(=O)C(F)(F)F)[C@H](O)[C@H](C)O2)C1)C(=O)c1c(OC)cccc1C3=O` [Valrubicin], drug sensitivity score 2.29. Against it:
- CC[C@H](Nc1ncnc2[nH]cnc12)c1nc2cccc(F)c2c(=O)n1-c1ccccc1 [GS-1101] — lower, 0
- CC1=C(/C=C/C(C)=C/C=C/C(C)=C/C(=O)O)C(C)(C)CCC1 [Tretinoin] — lower, 0.765
- Nc1ccccc1NC(=O)c1ccc(CNC(=O)OCc2cccnc2)cc1 [Entinostat] — higher, 4.34
- C=CC(=O)Nc1cc2c(Nc3ccc(F)c(Cl)c3)ncnc2cc1OCCCN1CCOCC1 [Canertinib] — higher, 3.8

Each compound was assayed on MDA-MB-453 in the same assay as above. Details: incubation time: 72 h.
How it was run: as §1

Point of comparison: `CCCCC(=O)OCC(=O)[C@]1(O)Cc2c(O)c3c(c(O)c2[C@@H](O[C@H]2C[C@H](NC(=O)C(F)(F)F)[C@H](O)[C@H](C)O2)C1)C(=O)c1c(OC)cccc1C3=O` [Valrubicin], drug sensitivity score 2.44. Against it:
- CC[C@H](Nc1ncnc2[nH]cnc12)c1nc2cccc(F)c2c(=O)n1-c1ccccc1 [GS-1101] — lower, 0
- CC1=C(/C=C/C(C)=C/C=C/C(C)=C/C(=O)O)C(C)(C)CCC1 [Tretinoin] — lower, 2.34
- Nc1ccccc1NC(=O)c1ccc(CNC(=O)OCc2cccnc2)cc1 [Entinostat] — higher, 6.08
- C=CC(=O)Nc1cc2c(Nc3ccc(F)c(Cl)c3)ncnc2cc1OCCCN1CCOCC1 [Canertinib] — higher, 6.35

Each compound was assayed on CAL-148 in the same assay as above. Details: incubation time: 72 h.
How it was run: as §1

Point of comparison: `Nc1ccccc1NC(=O)c1ccc(CNC(=O)OCc2cccnc2)cc1` [Entinostat], drug sensitivity score 4.83. Against it:
- CC[C@H](Nc1ncnc2[nH]cnc12)c1nc2cccc(F)c2c(=O)n1-c1ccccc1 [GS-1101] — lower, 0
- CC1=C(/C=C/C(C)=C/C=C/C(C)=C/C(=O)O)C(C)(C)CCC1 [Tretinoin] — lower, 2.48
- C=CC(=O)Nc1cc2c(Nc3ccc(F)c(Cl)c3)ncnc2cc1OCCCN1CCOCC1 [Canertinib] — higher, 5.7
- CCCCC(=O)OCC(=O)[C@]1(O)Cc2c(O)c3c(c(O)c2[C@@H](O[C@H]2C[C@H](NC(=O)C(F)(F)F)[C@H](O)[C@H](C)O2)C1)C(=O)c1c(OC)cccc1C3=O [Valrubicin] — higher, 13.8

These compounds were tested on Hs578T in the same assay as above. Details: incubation time: 72 h.
How it was run: as §1

Point of comparison: `CCCCC(=O)OCC(=O)[C@]1(O)Cc2c(O)c3c(c(O)c2[C@@H](O[C@H]2C[C@H](NC(=O)C(F)(F)F)[C@H](O)[C@H](C)O2)C1)C(=O)c1c(OC)cccc1C3=O` [Valrubicin], drug sensitivity score 5.56. Against it:
- CC[C@H](Nc1ncnc2[nH]cnc12)c1nc2cccc(F)c2c(=O)n1-c1ccccc1 [GS-1101] — lower, 0
- CC1=C(/C=C/C(C)=C/C=C/C(C)=C/C(=O)O)C(C)(C)CCC1 [Tretinoin] — lower, 1.26
- Nc1ccccc1NC(=O)c1ccc(CNC(=O)OCc2cccnc2)cc1 [Entinostat] — lower, 4.83
- C=CC(=O)Nc1cc2c(Nc3ccc(F)c(Cl)c3)ncnc2cc1OCCCN1CCOCC1 [Canertinib] — lower, 2.99

These compounds were tested on DU-4475 in the same assay as above. Details: incubation time: 72 h.
How it was run: as §1

Point of comparison: `C=CC(=O)Nc1cc2c(Nc3ccc(F)c(Cl)c3)ncnc2cc1OCCCN1CCOCC1` [Canertinib], drug sensitivity score 0.331. Against it:
- CC[C@H](Nc1ncnc2[nH]cnc12)c1nc2cccc(F)c2c(=O)n1-c1ccccc1 [GS-1101] — lower, 0
- CC1=C(/C=C/C(C)=C/C=C/C(C)=C/C(=O)O)C(C)(C)CCC1 [Tretinoin] — lower, 0
- Nc1ccccc1NC(=O)c1ccc(CNC(=O)OCc2cccnc2)cc1 [Entinostat] — higher, 4.63
- CCCCC(=O)OCC(=O)[C@]1(O)Cc2c(O)c3c(c(O)c2[C@@H](O[C@H]2C[C@H](NC(=O)C(F)(F)F)[C@H](O)[C@H](C)O2)C1)C(=O)c1c(OC)cccc1C3=O [Valrubicin] — higher, 11.5

The compounds below were run on SK-BR-3 in the same assay as above. Details: incubation time: 72 h.
How it was run: as §1

Point of comparison: `CC[C@H](Nc1ncnc2[nH]cnc12)c1nc2cccc(F)c2c(=O)n1-c1ccccc1` [GS-1101], drug sensitivity score 0. Against it:
- CC1=C(/C=C/C(C)=C/C=C/C(C)=C/C(=O)O)C(C)(C)CCC1 [Tretinoin] — higher, 7.99
- Nc1ccccc1NC(=O)c1ccc(CNC(=O)OCc2cccnc2)cc1 [Entinostat] — higher, 6.67
- C=CC(=O)Nc1cc2c(Nc3ccc(F)c(Cl)c3)ncnc2cc1OCCCN1CCOCC1 [Canertinib] — higher, 20.8
- CCCCC(=O)OCC(=O)[C@]1(O)Cc2c(O)c3c(c(O)c2[C@@H](O[C@H]2C[C@H](NC(=O)C(F)(F)F)[C@H](O)[C@H](C)O2)C1)C(=O)c1c(OC)cccc1C3=O [Valrubicin] — higher, 12.4

The compounds below were run on CAL-85-1 in the same assay as above. Details: incubation time: 72 h.
How it was run: as §1

Point of comparison: `C=CC(=O)Nc1cc2c(Nc3ccc(F)c(Cl)c3)ncnc2cc1OCCCN1CCOCC1` [Canertinib], drug sensitivity score 13.6. Against it:
- CC[C@H](Nc1ncnc2[nH]cnc12)c1nc2cccc(F)c2c(=O)n1-c1ccccc1 [GS-1101] — lower, 0
- CC1=C(/C=C/C(C)=C/C=C/C(C)=C/C(=O)O)C(C)(C)CCC1 [Tretinoin] — lower, 0
- Nc1ccccc1NC(=O)c1ccc(CNC(=O)OCc2cccnc2)cc1 [Entinostat] — lower, 1.24
- CCCCC(=O)OCC(=O)[C@]1(O)Cc2c(O)c3c(c(O)c2[C@@H](O[C@H]2C[C@H](NC(=O)C(F)(F)F)[C@H](O)[C@H](C)O2)C1)C(=O)c1c(OC)cccc1C3=O [Valrubicin] — lower, 4.91

What follows are compounds tested on CAL-120 in the same assay as above. Details: incubation time: 72 h.
How it was run: as §1

Point of comparison: `C=CC(=O)Nc1cc2c(Nc3ccc(F)c(Cl)c3)ncnc2cc1OCCCN1CCOCC1` [Canertinib], drug sensitivity score 3.29. Against it:
- CC[C@H](Nc1ncnc2[nH]cnc12)c1nc2cccc(F)c2c(=O)n1-c1ccccc1 [GS-1101] — lower, 1.34
- CC1=C(/C=C/C(C)=C/C=C/C(C)=C/C(=O)O)C(C)(C)CCC1 [Tretinoin] — lower, 0
- Nc1ccccc1NC(=O)c1ccc(CNC(=O)OCc2cccnc2)cc1 [Entinostat] — lower, 0
- CCCCC(=O)OCC(=O)[C@]1(O)Cc2c(O)c3c(c(O)c2[C@@H](O[C@H]2C[C@H](NC(=O)C(F)(F)F)[C@H](O)[C@H](C)O2)C1)C(=O)c1c(OC)cccc1C3=O [Valrubicin] — lower, 0
